According to patent US6716809B1, “Mage-A3 peptides presented by HLA class molecules” (priority 1997, dated 2004):

Assays:
[1] = system: CD4+ clone 436/B6.34 (B6/34); assay: TNF/IFN-γ production by CD4+ clone B6/34 stimulated with peptide-pulsed EBV-B cells; format: cell-based, human
Procedure: In order to identify the MAGE-A3 peptides recognized by these CD4^+ clones, 16 amino acid peptides, corresponding to parts of the MAGE-A3 protein sequence were synthesized, loaded on the autologous EBV-B cells and tested for recognition (FIGS. 4 and 5). Peptides were synthesized using F-moc for transient NH2-terminal protection and were characterized using mass spectrometry. All peptides were >80% pure as indicated by analytical HPLC. Lyophilized synthetic peptides were dissolved in DMSO (Merck) and used at a final concentration of 500 μM, 50 μM or 5 μg/ml. EBV-B cells (5,000 per round-bottomed microwell) were incubated 2 hours at 37° C., 8% CO2 in the presence of the different peptides, the indicated concentrations representing the peptide concentration during the incubation step. CD4^+ clones were then added at 2,500 cells per well. Assay medium was Iscove's medium supplemented with L-glutamine, L-arginine, L-asparagine, 10% human serum and IL-2 (25 U/ml). After 18-20 hours, supernatants were harvested and assessed for TNF-α and/or IFN-γ secretion. IFN-γ production was measured using an ELISA test (20-4000 pg/ml) developed in the laboratory with reagents from Medgenix Diagnostics-Biosource (Fleurus, Belgium).

clone 37 = assay: Presentation of exogenous MAGE-A3 by HLA-DR13 dendritic cells to clone 37 (IFN-γ ELISA); format: cell-based, human; settings: 10^4 HLA-DR13 dendritic cells in 100 μl pre-incubated 24 h; 2500 clone 37 cells, 20 h
Procedure: Clone 37 was obtained with autologous dendritic cells heavily loaded with MAGE-A3 protein. To determine the ability of dendritic cells that capture a quantity of MAGE-A3 protein released by a few MAGE-A3^+ cells to stimulate CD4^+ T cells, HLA-DR13 dendritic cells were incubated for 24h with decreasing concentrations of MAGE-A3 as depicted in (FIG. 9A). Stimulation of clone 37 was tested by washing the cells, distributing the cells in round-bottomed microwells, and adding 2500 clone 37 cells. IFN-γ secretion was measured by ELISA after 20h of coculture. Experiments were performed in triplicate. Half maximum production of IFN-γ was obtained when 10^4 dendritic cells in a volume of 100 μl were pre-incubated with 30 ng of MAGE-A3, the quantity of MAGE-A3 present in around 2×10^4 MZ2-MEL.43 tumor cells.

Molecule | activation of clone B6/34 by 16 amino acid peptides [1] | quantity of MAGE-A3 giving half maximum production of IFN-γ (clone 37) [ng]
FLLLKYRAREPVTKAE (listed as Homo sapiens) [MAGE-A3119-134] | unable to activate | –
MAGE-A3: MAGE-A3 protein; recombinant His-MAGE-A3 produced in E. coli, or expressed from MFG MAGE-A3 retrovirus in Example 6 (protein, listed as Homo sapiens, His tag) MPLEQRSQHCKPEEGLEARGEALGLVGAQAPATEEQEAASSSSTLVEVTLGEVPAAESPDPPQSPQGASSLPTTMNYPLWSQSYEDSSNQEEEGPSTFPDLESEFQAALSRKVAELVHFLLLKYRAREPVTKAEMLGSVVGNWQYFFPVIFSKASSSLQLVFGIELMEVDPIGHLYIFATCLGLSYDGLLGDNQIMPKAGLLIIVLAIIAREGDCAPEEKIWEELSVLEVFEGREDSILGDPKKLLTQHFVQENYLEYRQVPGSDPACYEFLWGPRALVETSYVKVLHHMVKISGGPHISYPPLHEWVLREGEE | – | 30
